According to ChEMBL document CHEMBL5724696, “Autophagy assay results for EUbOPEN Chemogenomics Library” (2024):

Key:
Type in all cases: functional, Homo sapiens
U2OS [1] = assay: (§1) Here: values are normalized to the negative (DMSO; defined as 0% autophagy induction) and positive (250nM Torin1; mTOR inhibitor; defined as maximal inducer of autophagy = 100%) control compounds and represented as % of autophagy induction. […] The impact of autophagy induction on cells is complex and depends on the affected target. As such, the magnitude of a phenotype may not be equally mirrored in the %-value of autophagy induction and vice versa. The dynamics of the induction may indicate the mode of activation: e.g. activation via phosphorylation or a signaling cascade may occur fast, while activation via transcription factors may take considerably longer. […] Of note, treatment concentrations may be sub-optimal for specific compounds, leading to false negative annotations.; details: Culturing Media DMEM, 1 % Penicillin/Streptomycin, 10% Fetal bovin serum Add-On: No, Screening Media Control DMEM, Screening Media Samples DMEM
TERT-RPE1 = assay: as §1; details: Culturing Media DMEM/F12 (1:1), 1 % Penicillin/Streptomycin, 10% Fetal bovin serum Add-On: No, Screening Media Control DMEM/F12 (1:1), Screening Media Samples DMEM/F12 (1:1)
U2OS [2] = assay: as §1; details: Culturing Media DMEM, 1 % Penicillin/Streptomycin, 10% Fetal bovin serum Add-On: No, Screening Media Control DMEM, Screening Media Samples DMEM; remark: listed apart in the source
[3] = Compound Concentration 0.5 uM, Timepoint 12 hours
[4] = Compound Concentration 0.5 uM, Timepoint 24 hours
[5] = Compound Concentration 0.5 uM, Timepoint 36 hours
[6] = Compound Concentration 0.5 uM, Timepoint 60 hours
[7] = Compound Concentration 2 uM, Timepoint 12 hours
[8] = Compound Concentration 2 uM, Timepoint 24 hours
[9] = Compound Concentration 2 uM, Timepoint 36 hours
[10] = Compound Concentration 2 uM, Timepoint 60 hours
[11] = Compound Concentration 10 uM, Timepoint 12 hours
[12] = Compound Concentration 10 uM, Timepoint 24 hours
[13] = Compound Concentration 10 uM, Timepoint 36 hours
[14] = Compound Concentration 10 uM, Timepoint 60 hours

Compound | autophagy induction (U2OS [1]; [3]) | autophagy induction (U2OS [1]; [4]) | autophagy induction (U2OS [1]; [5]) | autophagy induction (U2OS [1]; [6]) | autophagy induction (U2OS [1]; [7]) | autophagy induction (U2OS [1]; [8]) | autophagy induction (U2OS [1]; [9]) | autophagy induction (U2OS [1]; [10]) | autophagy induction (U2OS [1]; [11]) | autophagy induction (U2OS [1]; [12]) | autophagy induction (U2OS [1]; [13]) | autophagy induction (U2OS [1]; [14]) | autophagy induction (TERT-RPE1; [3]) | autophagy induction (TERT-RPE1; [4]) | autophagy induction (TERT-RPE1; [5]) | autophagy induction (TERT-RPE1; [6]) | autophagy induction (TERT-RPE1; [7]) | autophagy induction (TERT-RPE1; [8]) | autophagy induction (TERT-RPE1; [9]) | autophagy induction (TERT-RPE1; [10]) | also measured
CS(=O)(=O)NC[C@H]1CC[C@H](Nc2nc3c(s2)CCSc2ccccc2-3)CC1 | 7.101% | 7.652% | 1.469% | -11.3587% | 8.098% | 3.777% | 0.6599% | -6.18% | 6.84% | 4.331% | 3.398% | 7.256% | -4.034% | -8.281% | -9.381% | -11.7228% | -3.533% | -4.081% | -4.248% | -9.574% | autophagy induction (TERT-RPE1; [11]): -3.228%; autophagy induction (TERT-RPE1; [12]): -1.909%; autophagy induction (TERT-RPE1; [13]): 1.0286%; autophagy induction (TERT-RPE1; [14]): 5.565%; autophagy induction (U2OS [2]; [3]): -4.815%; autophagy induction (U2OS [2]; [4]): -2.571%; autophagy induction (U2OS [2]; [5]): -1.135%; autophagy induction (U2OS [2]; [6]): -2.5406%; autophagy induction (U2OS [2]; [7]): -10.1359%; autophagy induction (U2OS [2]; [8]): -5.225%; autophagy induction (U2OS [2]; [9]): -2.722%; autophagy induction (U2OS [2]; [10]): -2.833%; autophagy induction (U2OS [2]; [11]): -13.0428%; autophagy induction (U2OS [2]; [12]): -4.43%; autophagy induction (U2OS [2]; [13]): -4.437%; autophagy induction (U2OS [2]; [14]): -6.0772%
Cc1nc(C(=O)N2CCC[C@H]2Cc2nnc(-c3ccccc3)o2)c(-c2ccccc2F)s1 | 13.4134% | 8.147% | 0.9843% | 3.676% | 5.837% | 5.052% | 3.424% | -6.267% | 0.7146% | 3.711% | -0.07108% | -6.907% | -3.536% | -6.3015% | -4.185% | -7.252% | -4.803% | -6.585% | -5.999% | -9.333% | autophagy induction (TERT-RPE1; [11]): 0.2716%; autophagy induction (TERT-RPE1; [12]): 0.5174%; autophagy induction (TERT-RPE1; [13]): 2.2318%; autophagy induction (TERT-RPE1; [14]): 3.905%; autophagy induction (U2OS [2]; [3]): 4.15%; autophagy induction (U2OS [2]; [4]): -0.2081%; autophagy induction (U2OS [2]; [5]): -2.227%; autophagy induction (U2OS [2]; [6]): -2.102%; autophagy induction (U2OS [2]; [7]): 0.7749%; autophagy induction (U2OS [2]; [8]): -1.115%; autophagy induction (U2OS [2]; [9]): -1.752%; autophagy induction (U2OS [2]; [10]): -2.832%; autophagy induction (U2OS [2]; [11]): 4.1851%; autophagy induction (U2OS [2]; [12]): 1.702%; autophagy induction (U2OS [2]; [13]): -1.044%; autophagy induction (U2OS [2]; [14]): -3.102%
CSc1ccc(C(=O)N[C@@H]2CCCC[C@@H]2NC(=O)CNC(=O)c2cc(C(F)(F)F)ccc2NC(=O)NC(C)C)cc1 | -3.4763% | -6.206% | -3.128% | -12.7895% | 8.51% | 8.515% | 8.998% | -1.4223% | 3.613% | 5.882% | 6.117% | 10.5977% | -7.317% | -10.4362% | -10.5931% | -10.1253% | -7.697% | -8.893% | -11.9452% | -15.6367% | autophagy induction (TERT-RPE1; [11]): -4.351%; autophagy induction (TERT-RPE1; [12]): -5.968%; autophagy induction (TERT-RPE1; [13]): -5.344%; autophagy induction (TERT-RPE1; [14]): -2.567%; autophagy induction (U2OS [2]; [3]): -1.519%; autophagy induction (U2OS [2]; [4]): -1.673%; autophagy induction (U2OS [2]; [5]): -0.1292%; autophagy induction (U2OS [2]; [6]): -0.4268%; autophagy induction (U2OS [2]; [7]): 6.41%; autophagy induction (U2OS [2]; [8]): -0.3397%; autophagy induction (U2OS [2]; [9]): 0.2664%; autophagy induction (U2OS [2]; [10]): 0.6149%; autophagy induction (U2OS [2]; [11]): -6.202%; autophagy induction (U2OS [2]; [12]): -3.0141%; autophagy induction (U2OS [2]; [13]): -1.6234%; autophagy induction (U2OS [2]; [14]): -0.3642%
N#Cc1c(N)nc(SCC(N)=O)c(C#N)c1-c1ccc(OCC2CC2)cc1 | 13.384% | 10.3272% | 7.6764% | 5.5559% | 6.979% | 4.233% | 4.058% | 1.654% | 28.6221% | 28.519% | 26.7564% | 32.3548% | -0.3512% | -0.4647% | -3.4426% | -13.7976% | 6.426% | 7.278% | 5.568% | -4.471% | autophagy induction (TERT-RPE1; [11]): 18.2835%; autophagy induction (TERT-RPE1; [12]): 21.4433%; autophagy induction (TERT-RPE1; [13]): 22.9122%; autophagy induction (TERT-RPE1; [14]): 26.9726%; autophagy induction (U2OS [2]; [3]): 1.815%; autophagy induction (U2OS [2]; [4]): -1.199%; autophagy induction (U2OS [2]; [5]): -2.125%; autophagy induction (U2OS [2]; [6]): -2.448%; autophagy induction (U2OS [2]; [7]): 4.971%; autophagy induction (U2OS [2]; [8]): 0.9116%; autophagy induction (U2OS [2]; [9]): -0.4866%; autophagy induction (U2OS [2]; [10]): -0.2456%; autophagy induction (U2OS [2]; [11]): 12.9304%; autophagy induction (U2OS [2]; [12]): 7.609%; autophagy induction (U2OS [2]; [13]): 1.394%; autophagy induction (U2OS [2]; [14]): 0.5911%
